Source: US6479516B1, “4-arylpiperidine derivatives for the treatment of pruritus” (Pfizer Inc, priority 1999, dated 2002)

System: Male Wistar rats
Test: Inhibition of hind leg scratching behaviour induced in rats by a pruritogenic agent (5-methoxytryptamine hydrochloride)
Assay type: in vivo, rat
Conditions: test compound by subcutaneous injection in aqueous micelle formulation; pruritogen 5-methoxytryptamine hydrochloride 4 mg/3 mL/kg s.c.; hindleg scratching score totalled after 25 minutes vs control group
Procedure: The compounds of the invention are evaluated for their activity as antipruritic agents by measuring their ability to inhibit the hind leg scratching behaviour induced in rats by the administration of a known pruritogenic agent. These studies are based on the procedure described by Berendsen and Broekkamp in the European Journal of Pharmacology, 1991, 194, 201. The test is performed as follows:
Male Wistar rats (approximately 150 g body weight) are challenged with a pruritogen by subcutaneous injection of 5-methoxytryptamine hydrochloride (4 mg/3 mL/kg) dissolved in physiological saline into the scruff of the neck. At this dose a constant and quantifiable hindleg scratching response lasting up to 90 minutes is obtained.
The test compound is administered to the test animals by subcutaneous injection in an aqueous micelle formulation. The test compound is prepared in the following manner. The compound is dissolved in a vehicle (composition v/v %: glycerol formal, 24; tween 80, 17; benzyl alcohol, 1.5 and purified water to 100) then seven parts purified water is added to three parts of the above vehicle to give the aqueous micelle formulation. […]
After the pruritogen challenge has been administered, hindleg scratching is scored for each animal by recording the presence or absence of scratching during each 30 second interval as 1 or 0 scored respectively. […]

Q: Which anti-pruritic activity does the source give for `CCCCCCN1CC[C@@](C)(c2ccc(NC(C)=O)c(O)c2)[C@H](C)C1` (racemic) [Example 8, (±)-N-Hexyl-trans-3,4-dimethyl-4-(4-acetylamino-3-hydroxyphenyl)piperidine] here?
A: display anti-pruritic activity
